Test results taken from patent US8530235B2, “Medium that supports culture of an oocyte and modulation of granulosa cell apoptosis” (Adelaide Research & Innovation Pty Ltd., priority 2005, dated 2013).

How the values were obtained:
cumulus-oocyte complexes = experiment: Study IV: oocyte developmental competence after IVM, IVF and embryo culture; format: cell-based, Bovine
Description: Unless otherwise specified, all chemicals and reagents were purchased from Sigma (St Louis, Mo.). Bovine ovaries were collected from local abattoirs and transported to the laboratory in warm saline (30-35° C.). COCs were aspirated from antral follicles (3 to 5 mm diameter) using an 18-gauge needle and a 10-ml syringe containing ˜2 ml aspiration medium (Hepes-buffered. Tissue Cultured Medium-199; TCM-199. ICN Biochemicals, Irvine, Calif., USA) supplemented with 50 μg/ml kanamycin, 0.5 mM sodium pyruvate, 50 μg/ml heparin and 4 mg/ml fatty acid-free bovine serum albumin (FAF-BSA; ICPbio Ltd, Aukland, NZ). Intact COCs with compact cumulus vestments>˜5 cell layers and evenly pigmented cytoplasm were selected under a dissecting microscope and washed twice in Hepes-buffered TCM-199 and once in Hepes-buffered TCM-199 supplemented with 10% fetal calf serim (FCS) (Invitrogen, Carlsbad, Calif.). The basic medium for oocyte maturation was Bovine VitroMat (Cook Australia, Eight Mile Plains, Qld, Australia), a medium based on the ionic composition of bovine follicular fluid. […] Complexes were cultured in pre-equilibrated 300 ? l drops overlaid with mineral oil and incubated at 39° C. with 5% CO2 in humidified air for 24 hour. […]
Recombinant mouse GDF9 and recombinant ovine BMP15 were produced and partially purified in-house as previously described using transfected 293 human embryonic kidney cell lines (293H) originally donated by O. Ritvos (University of Helsinki). Control conditioned medium (hereafter designated ‘293H’) was produced from untransfected 293H cells and subjected to the same chromatography procedures as GDF9 and BMP15 conditioned media.
Consequently, SB-431542 potently antagonizes the ALK 4/5 ligands; TGF-β1, the activins and GDF9, without affecting BMP signalling (Inman et al., 2002; Gilchrist et al., 2006). […] Follistatin-288 was generously donated by S. Shimasaki (University of California San Diego, USA) and we have previously shown that this binding protein antagonizes the bioactivities of native OSFs and recombinant BMP15 in CCs.
In vitro production of embryos was undertaken using defined, serum-free media (Bovine Vitro series of media, Cook Australia). Frozen semen from a single bull of proven fertility was used in all experiments. Briefly, thawed semen was layered over a discontinuous (45%: 90%) Percoll gradient (Amersham Bioscience) and centrifuged (RT) for 20-25 mins at 700 g. The supernatant was removed and the sperm pellet was washed with 500 μl Bovine VitroWash (Cook Australia) and centrifuged for a further 5 minutes at 200 g. Spermatozoa were resuspended with IVF medium (Bovine VitroFert, Cook Australia), then added to the fertilization media drops (Bovine VitroFert, supplemented with 0.01 mM heparin, 0.2 mM penicillamine and 0.1 mM hypotaurine) at a final concentration of 1×106 spermatozoa/ml. COCs were inseminated at a density of 10 μl of IVF medium per COC for 24 h, at 39° C. in 6% CO2 in humidified air.
CCs were removed by gentle pipetting 23-24 h post insemination and five presumptive zygotes were transferred into 20 μl drops of pre-equilibrated Cook Bovine VitroCleave medium (Cook Australia) and cultured under mineral oil at 38.5° C. in 7% O2, 6% CO2, balance N2, for five days (day 1 to day 5).
On Day 5, embryos were transferred in groups of 5-6 to 20 μl drops of pre-equilibrated Bovine VitroBlast (Cook Australia) at 38.5° C. overlaid with mineral oil and cultured to Day 8. Embryos were assessed for quality at Day 8 according to the definitions presented in the Manual of the International Embryo Transfer Society (Stringfellow, 1998) and were performed independently and blinded by an experienced bovine embryologist.
Cell counts were performed using a modified version of the technique described by (Fouladi-Nashta et al., 2005). […]

[1] = test system: activin receptor-like kinases (ALKs) 4, 5 and 7; conditions: competitive ATP binding site kinase inhibitor; without effecting ALKs 1, 2, 3 or 6 or other cellular kinases; cited from earlier work
mural granulosa cells = experiment: Mural granulosa cell DNA synthesis, 3H-thymidine incorporation; format: cell-based, marmoset monkey, Callithrix jacchus; conditions: GC from large antral follicles
Description: Mural GC from large antral follicles were cultured for 24h and thymidine incorporation was stimulated with 175 ng/ml GDF9. […] Bars/points represent means+/−SEM from 3 replicate experiments expressed as a fold change relative to control.
Follicles were manually excised and separated into 3 size classes: periantral (PA; 0.42-0.66 mm), small antral (SA; 0.66-1.5 mm) and large antral (LA; >1.5 mm). GCs from each follicle size were collected and pooled, then washed twice in bicarbonate-buffered tissue culture medium-199 (B-TCM) supplemented with 0.3 mg/ml of polyvinyl alcohol (PVA, Sigma). Depending on the individual experiments, mural GCs (1×10^5 cells/ml), hormones, inhibitors and media were added to wells of 96-well plates (Falcon) to give a final volume of 125 μl. Within each experiment, all treatments were carried out in at least duplicate wells and each experiment was replicated on at least 3 occasions. Cells were cultured in an atmosphere of 37° C., 96% humidity in 5% CO2 in air for 18 hours, followed by a further 6 hour pulse of 15.4 kBq tritiated thymidine (3H-thymidine, ICN) under the same conditions.
Seven adult female marmosets were primed with […] for 6 days, whole ovaries were removed on day 7, follicles manually excised, and GC were then collected from 3 size classes: periantral (PA; 0.42-0.66 mm), small antral (SA; 0.66-1.5 mm) and large antral (LA; >1.5 mm). Four different approaches were utilized to examine GDF9 function in GC. […] To examine the GDF9 signalling pathway, cultured GC from LA follicles were transfected with either a CAGA-luciferase or BRE-luciferase reporter construct and treated with various TGF-β superfamily growth factors or co-cultured with mouse oocytes. In order to determine the effects of GDF9 on marmoset GC proliferation, we employed a GC bioassay whereby after 24 h ^3H-thymidine incorporation is assessed as an indicator of DNA synthesis and cellular proliferation. […] In another experiment, GC were treated with an increasing dose of SB431542, an activin-like kinase (ALK) 4/5/7 inhibitor, in the presence of GDF9+/−IGF1.

## NC(=O)c1ccc(-c2nc(-c3ccc4c(c3)OCO4)c(-c3ccccn3)[nH]2)cc1 [SB-431542, reference compound]
cumulus-oocyte complexes; 4 μM SB-431542 or 10 μg/ml follistatin-288, compared to untreated COCs
  blastocyst development of control COCs treated with antagonist: significantly (P<0.05) decreased
cumulus-oocyte complexes; Experiments 3 & 4, 4 μM SB-431542, 175 ng/ml GDF9, 10% v/v BMP15, 10% v/v 293H
  effect on cleavage rate: no influence
cumulus-oocyte complexes; SB-431542 against GDF9, follistatin against BMP15
  increase of blastocyst yields by GDF9 or BMP15 on addition of the respective antagonist: ablated
[1]
  kinase selectivity: specifically antagonizing the activities of activin receptor-like kinases (ALKs) 4, 5 and 7
Mural granulosa cells; 175 ng/ml GDF9, 24 h
  DNA synthesis stimulated by GDF9 in the presence of inhibitor: dose-dependently inhibited
Mural granulosa cells; 1 μM
  stimulatory effects of GDF9 on DNA synthesis at 1 μM inhibitor: completely eliminate
